Results on 8 compounds are retold here after patent publication US8431588B2, “Cyclopropyl polymerase inhibitors” (Janssen Products, LP, priority 2008, dated 2013).

The nature of series [1]: Cellular toxicity in the Huh7-CMV-Luc replicon assay. To be noted: human; Huh7-CMV-Luc cells, three days incubation, Luc activity. In kind it is cell-based. The method, then:
Cellular toxicity was determined in the Huh7-CMV-Luc replicon assay. Replicon cells (2500 cells/well), stably transformed with a luciferase reporter gene under control of the cytomegalovirus (CMV) constitutive promotor, were cultured in the presence or absence of test compound concentrations. After three days of incubation at 37° C. in a humidified 5% CO2 atmosphere, cell proliferation was quantified by measuring the Luc activity, and expressed as CC50 values (cytotoxicity, 50% inhibitory concentration of cell growth). Tests were performed in 384-well plates.
Background: In antiviral work, replicon cells carry a viral genome segment that copies itself.

In series [2] the test system is wild type human immunodeficiency virus (HIV) strain IIIB. In words: microbe, parasite or virus in culture. Format: cell-based, HIV-1. The note with it: read-out: EC50 (IIIB). The method, then: Compounds of the invention were tested for their potency against wild type human immunodeficiency virus (HIV). Antiviral activity was evaluated using a cellular assay performed according to the following procedure. The human T-cell line MT4 was engineered with Green Fluorescent Protein (GFP) and a HIV-specific promoter, HIV-1 long terminal repeat (LTR). This cell line, designated MT4 LTR-EGFP, can be used for the in vitro evaluation of anti-HIV activity of investigational compounds. In HIV-1 infected cells, the Tat protein is produced, which upregulates the LTR promotor and eventually leads to stimulation of the GFP reporter production, allowing to measure ongoing HIV-infection fluorometrically. Effective concentration values such as 50% effective concentration (EC50) can be determined and are usually expressed in μM. An EC50 value is defined as the concentration of test compound that reduces the fluorescence of HIV-infected cells by 50%. Monitoring of HIV-1 infection was done using a scanning microscope. Image analysis allows very sensitive detection of viral infection. Measurements were done before cell necrosis, which usually takes place about five days after infection, in particular measurements were performed three days after infection. The column IIIB in the table list the EC50 values against the wild type strain IIIB.

The subject of series [3] is HCV type 1b replicon in Huh-7 luc/neo (Huh-Luc) cells. The series can be described thus: HCV replicon assay (Huh-Luc, luciferase readout). To be noted: Hepatitis C virus, Huh-7, 72 h, read-out: EC50 (replicon). Format: cell-based. From the text:
The compounds of formula I were examined for activity in the inhibition of HCV RNA replication in a cellular assay aimed at identifying compounds that inhibit a HCV functional cellular replicating cell line, also known as HCV replicons. The cellular assay was based on a bicistronic expression construct, as described by Lohmann et al. (1999), Science vol. 285 pp. 110-113 with modifications described by Krieger et al. (2001), Journal of Virology 75: 4614-4624, in a multi-target screening strategy.
The assay utilized the stably transfected cell line Huh-7 luc/neo (hereafter referred to as Huh-Luc). This cell line harbors an RNA encoding a bicistronic expression construct comprising the wild type NS3-NS5B regions of HCV type 1b translated from an Internal Ribosome Entry Site (IRES) from encephalomyocarditis virus (EMCV), preceded by a reporter portion (FfL-luciferase), and a selectable marker portion (neo^R, neomycine phosphotransferase). The construct is bordered by 5′ and 3′ NTRs (non-translated regions) from HCV type 1b. Continued culture of the replicon cells in the presence of G418 (neo^R) is dependent on the replication of the HCV RNA. The stably transfected replicon cells that express HCV RNA, which replicates autonomously and to high levels, encoding inter alia luciferase, were used for screening the antiviral compounds.
The replicon cells were plated in 384 well plates in the presence of the test and control compounds which were added in various concentrations. Following an incubation of three days, HCV replication was measured by assaying luciferase activity (using standard luciferase assay substrates and reagents and a Perkin Elmer ViewLux™ ultraHTS microplate imager). Replicon cells in the control cultures have high luciferase expression in the absence of any inhibitor. The inhibitory activity of the compound on luciferase activity was monitored on the Huh-Luc cells, enabling a dose-response curve for each test compound. EC50 values were then calculated, which value represents the amount of the compound required to decrease the level of detected luciferase activity by 50%, or more specifically, the ability of the genetically linked HCV replicon RNA to replicate.

Setting [4] is: Human immunodeficiency virus 1, 72 h, wild type strain IIIB, MT4 LTR-EGFP cells, three days after infection.
Setting [5] is: Huh-Luc replicon cells, three days incubation, luciferase activity.

Molecules are shown by their SMILES. Like-named read-outs stand apart in the source and are kept apart here.

The term CC50 denotes the concentration that lowers cell viability or growth by half. Low values mean greater toxicity to the cells, high ones lower toxicity to the cells. As usually defined, the EC50 is the concentration giving half of the maximal effect.

Regarding `C[C@H](NP(=O)(OC[C@H]1O[C@@H](n2ccc(N)nc2=O)C2(CC2)[C@@H]1O)Oc1ccccc1)C(=O)OCc1ccccc1` (stereo partly drawn) [Compound 2a, (2S)-benzyl 2-((((4R,6R,7S)-4-(4-amino-2-oxopyrimidin-1(2H)-yl)-7-hydroxy-5-oxaspiro[2.4]heptan-6-yl)methoxy)((phenoxy)phosphoryl)amino)propanoate], in series [1], the CC50 at 3 days is above 98 µM. The concentration for a half-maximal effect (EC50) in series [2] (setting [4]) was above 98 µM; in series [3] (setting [5]), 15.3 µM.
As to `CC(C)C(=O)OC[C@H]1O[C@@H](n2ccc(N)nc2=O)C2(CC2)[C@@H]1O` [Compound 4, ((4R,6R,7S)-4-(4-amino-2-oxopyrimidin-1(2H)-yl)-7-hydroxy-5-oxaspiro[2.4]heptan-6-yl)methyl isobutyrate], in series [1], the half-maximal cytotoxic concentration (CC50) at 3 days is above 98 µM. For the same compound, the EC50 in series [2] (Human immunodeficiency virus 1, IIIB, 72 h) is above 98 µM; in series [3] (setting [5]) it was 9.2 µM.
Take `CC(C)C(=O)O[C@@H]1[C@@H](CO)O[C@@H](n2ccc(N)nc2=O)C12CC2` [Compound 5, (4R,6R,7S)-4-(4-amino-2-oxopyrimidin-1(2H)-yl)-6-(hydroxymethyl)-5-oxaspiro[2.4]heptan-7-yl isobutyrate]: in series [1], the CC50 at 3 days was above 98 µM. Further, the figures for the concentration for a half-maximal effect (EC50) in series [2] (setting [4]) and in series [3] (setting [5]) were above 98 µM and 42.5 µM, respectively.
Compound `COC(=O)[C@H](C)NP(=O)(OC[C@H]1O[C@@H](n2ccc(N)nc2=O)C2(CC2)[C@@H]1O)Oc1ccccc1` (stereo partly drawn) [Compound 2d, (2S)-methyl 2-((((4R,6R,7S)-4-(4-amino-2-oxopyrimidin-1(2H)-yl)-7-hydroxy-5-oxaspiro[2.4]heptan-6-yl)methoxy)(phenoxy)phosphorylamino)propanoate] came in with a CC50 at 3 days in series [1] above 98 µM. Moreover, the figures for the EC50 in series [2] (setting [4]) and in series [3] (setting [5]) were above 98 µM and 63.1 µM, respectively.
Turning to `Nc1ccn([C@@H]2O[C@H](CO)[C@@H](O)C23CC3)c(=O)n1` [Compound 1, 4-Amino-1-(7-hydroxy-6-hydroxymethyl-5-oxa-spiro[2.4]hept-4-yl)-1H-pyrimidin-2-one], the CC50 at 3 days in series [1] was above 98 µM. Also, the EC50 in series [2] (setting [4]) was above 98 µM; in series [3] (setting [5]), 8.4 µM.
`CCOC(=O)[C@H](Cc1ccccc1)NP(=O)(OC[C@H]1O[C@@H](n2ccc(N)nc2=O)C2(CC2)[C@@H]1O)Oc1ccccc1` (stereo partly drawn) [Compound 2c, (2S)-ethyl 2-((((4R,6R,7S)-4-(4-amino-2-oxopyrimidin-1(2H)-yl)-7-hydroxy-5-oxaspiro[2.4]heptan-6-yl)methoxy)(phenoxy)phosphorylamino)-3-phenylpropanoate] returned a CC50 at 3 days in series [1] above 98 µM. Also, the values for the concentration for a half-maximal effect (EC50) in series [2] (setting [4]) and in series [3] were above 98 µM and at least 98 µM, respectively.
For `C[C@H](NP(=O)(OC[C@H]1O[C@@H](n2ccc(N)nc2=O)C2(CC2)[C@@H]1O)Oc1ccc(Cl)cc1)C(=O)OCc1ccccc1` (stereo partly drawn) [Compound 2b, (2S)-benzyl 2-((((4R,6R,7S)-4-(4-amino-2-oxopyrimidin-1(2H)-yl)-7-hydroxy-5-oxaspiro[2.4]heptan-6-yl)methoxy)(4-chlorophenoxy)phosphorylamino)propanoate], in series [1], the 50% cytotoxic concentration (CC50) at 3 days was above 98 µM. Also, the EC50 in series [2] (setting [4]) is above 98 µM; in series [3] (setting [5]), 26.3 µM.
The compound `CC(C)C(=O)OC[C@H]1O[C@@H](n2ccc(N)nc2=O)C2(CC2)[C@@H]1OC(=O)C(C)C` [Compound 3, (4R,6R,7S)-4-(4-amino-2-oxopyrimidin-1(2H)-yl)-6-(isobutyryl-oxymethyl)-5-oxaspiro[2.4]heptan-7-yl isobutyrate] displayed a cytotoxic concentration (CC50) at 3 days in series [1] above 98 µM. In addition, the values for the half-maximal effective concentration (EC50) in series [2] (setting [4]) and in series [3] (setting [5]) were above 98 µM and 27.2 µM, respectively.
